Patent US20240013855A1, “METHOD OF SEARCHING FOR SPECIFIC-BINDING FUNCTIONAL SUBSTANCES, SPECIFIC-BINDING FUNCTIONAL SUBSTANCE SEARCH SYSTEM, SPECIFIC-BINDING FUNCTIONAL SUBSTANCE SEARCH METHOD, AND PROGRAM” (SHINSHU UNIVERSITY, priority 2020, published 2024)

What was measured:
ABL in HEK293 cells = ABL in HEK293 cells (Homo sapiens, UniProt P00519); assay: Western blotting detection of ABL in cultured cell line HEK293; settings: HEK293 cultured for 4 days in the presence of compound
Protocol: Additionally, a western blotting detection using the cultured cell line HEK293 was conducted. […] Using the SDS-PAGE and western blotting methods, ABL and GAPDH were detected using antibodies specific to the two.

kinase ABL = kinase ABL (Homo sapiens, UniProt P00519); assay: Kinase ABL inhibitory activity with and without heating/cooling; assay type: biochemical
Protocol: (§1) Here, inhibitory effects on other kinases were studied.
(§2) As a result, for the kinase DYRK1A, the upper-limit temperature of 67.0° C. and lower-limit temperature of 57.5° C. were calculated as temperature conditions based on the measured data, as shown in FIG. 16. Consequently, the setpoint heating temperature for the temperature jump test was set to 62.0° C. […] Consequently, the setpoint heating temperature for the temperature jump test was set to 53.7° C. Also, for the kinase SRC, the upper-limit temperature of 59.6° C. and lower-limit temperature of 51.4° C. were calculated as temperature conditions based on the measured data, as shown in FIG. 18. Consequently, the setpoint heating temperature for the temperature jump test was set to 55.5° C. Also, for the kinase ABL, the upper-limit temperature of 55.6° C. and lower-limit temperature of 47.3° C. were calculated as temperature conditions based on the measured data, as shown in FIG. 19. Consequently, the setpoint heating temperature for the temperature jump test was set to 52.0° C.

kinase SRC = kinase SRC (Homo sapiens, UniProt P12931); assay: Kinase SRC inhibitory activity with and without heating/cooling; assay type: biochemical; settings: for inhibitory activity on SRC compared with DYRK1A: temperature jump; for inhibition of kinase SRC: with and without heating/cooling, IC80 concentration for temperature-jump inhibition of DYRK1A
Protocol: as §1, §2

kinase DYRK1B = kinase DYRK1B (Homo sapiens, UniProt Q9Y463); assay: Kinase DYRK1B inhibitory activity with and without heating/cooling; assay type: biochemical; settings: for inhibitory activity without heating/cooling: complete protein not heated/cooled; for inhibitory effect specific to the folding intermediate undergoing heating/cooling: with versus without heating/cooling
Protocol: Consequently, the setpoint heating temperature for the temperature jump test was set to 62.0° C. […] Consequently, the setpoint heating temperature for the temperature jump test was set to 52.0° C.

Kinase DYRK1A = Kinase DYRK1A (Homo sapiens, UniProt Q13627); assay: Kinase DYRK1A enzymatic activity (Kinase Glo, remaining ATP) with or without heating/quick cooling (temperature jump); assay type: biochemical; settings: for inhibitory effect on the complete protein that was not heated/cooled: no heating/cooling (conventional evaluation); for inhibitory effect specific to the folding intermediate undergoing heating/cooling: with versus without heating/cooling (temperature jump)
Protocol: Lastly, in the embodiment, the effect of the presence of the candidate functional substance in influencing the function of the protein is determined (step C). For example, what is determined is, such as, inhibitory effect when searching for an inhibitor, accelerative effect when searching for an accelerator, coagulative effect when searching for a coagulant, stabilizing effect when searching for a stabilizer, or activating effect when searching for an activator, as a functional substance. […] As an example, in this process a determination can be made by using the Promega Kinase Glo assay kit, etc., to quantify the amount of ATP remaining in the tube, and thereby measuring its enzymatic activity. It should be noted that the determination of inhibitory effect is not limited to one based on use of the aforementioned kit, etc.
• Kinase DYRK1A protein mass: 25 ng • DMSO concentration: 0.3% in 25 μL • ATP/substrate peptide (DYRKtide peptide: amino-acid sequence […]) concentration: 5 μM each • Volume at enzymatic reaction: 25 μL • Volume in thermal cycler (Biometra TAdvanced Model 96SG): 15 μL • Enzymatic reaction period: 2 hrs.
• 1. The DYRK1A protein, inhibitors (solvent DMSO alone was added in the case of “Inhibitor 0 μM”), buffer (final concentrations: 5 mM MOPS pH7.2, 2.5 mM beta-glycerol-phosphate, 5 mM MgCl2, 1 mM EGTA, 0.4 mM EDTA, 0.05 mM DTT) and ultrapure water were mixed in tubes placed in a white 96-well PCR plate. [Volume: 15 μL, DYRK1A protein mass: 25 ng, inhibitor concentration: 30 μM] • 2. The plate was set in a thermal cycler and heated for 20 seconds at each heating temperature, and then cooled for 10 seconds at 3° C. [Rate of heating/rate of cooling both 8° C./sec.] • 3. Upon completion of cooling, it was removed immediately and 10 μL of ATP/substrate peptide mixture solution was added. [Volume: 15 μL→25 μL, ATP/substrate peptide concentration 5 μM] • 4. It was set in the thermal cycler again to cause enzymatic reaction for 2 hours […] at 20° C. • 5. It was picked up from the thermal cycler and 25 μL of Kinase Glo reaction solution was added, and from the resulting luminescence value, the remaining amount of ATP was measured to evaluate the enzymatic activity. [Volume: 25 μL 50 μL]

DYRK1A in HEK293 cells = biological target: T1, DYRK1A in HEK293 cells (Homo sapiens, UniProt Q13627); assay: Western blotting detection of DYRK1A in cultured cell line HEK293; assay type: cell-based; settings: HEK293 cultured for 4 days in the presence of compound
T1 construct: endogenous in cells; host or cells: HEK293
Protocol: To be more specific, a study was conducted by western blotting using the cultured cell line HEK293.

monoamine oxidase MAO-A = biological target: T2, monoamine oxidase MAO-A (Homo sapiens, UniProt P21397); assay: Small-scale screening on monoamine oxidase MAO-A with temperature jump (MAO-A-Glo Assay); assay type: biochemical; settings: temperature jump 69.2° C; plant-derived compound library (1 to 34)
T2 sequence (P21397 1-527): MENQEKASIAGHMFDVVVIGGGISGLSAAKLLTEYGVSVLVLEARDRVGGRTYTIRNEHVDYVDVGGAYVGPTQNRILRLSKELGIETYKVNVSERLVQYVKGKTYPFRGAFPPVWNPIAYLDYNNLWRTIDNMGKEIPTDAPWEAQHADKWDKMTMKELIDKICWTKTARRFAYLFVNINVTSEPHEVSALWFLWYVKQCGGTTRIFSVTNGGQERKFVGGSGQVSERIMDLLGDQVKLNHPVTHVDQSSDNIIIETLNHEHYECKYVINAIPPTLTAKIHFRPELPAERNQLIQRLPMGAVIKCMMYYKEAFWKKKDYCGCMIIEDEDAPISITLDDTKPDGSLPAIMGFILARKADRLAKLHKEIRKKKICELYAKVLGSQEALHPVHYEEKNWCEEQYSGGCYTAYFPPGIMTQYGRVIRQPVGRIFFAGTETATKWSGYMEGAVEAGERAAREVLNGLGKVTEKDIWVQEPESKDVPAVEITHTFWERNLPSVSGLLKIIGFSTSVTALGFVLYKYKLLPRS
Protocol: Also, the monoamine oxidase MAO-A was studied as a way to set the upper-limit temperatures and lower-limit temperatures in FIG. 11 to FIG. 13. FIG. 20 is a figure showing the study results on upper-limit temperature and lower-limit temperature for the monoamine oxidase MAO-A. It should be noted that the test was conducted according to the product manual for Promega's MAO-A-Glo™ Assay Systems. It should be noted that the relative enzymatic activity was calculated based on the enzymatic activity at 40° C. being 1.0.
As a result, for the […] MAO-A, the upper-limit temperature of 76.4° C. and lower-limit temperature of 62.0° C. were calculated as temperature conditions based on the measured data, as shown in FIG. 20. Consequently, the setpoint heating temperature for the temperature jump test was set to 69.2° C. FIG. 21 is a figure showing the small-scale inhibitor screening results with respect to the monoamine oxidase MAO-A.

Sequence of kinase SRC (P12931 whole entry): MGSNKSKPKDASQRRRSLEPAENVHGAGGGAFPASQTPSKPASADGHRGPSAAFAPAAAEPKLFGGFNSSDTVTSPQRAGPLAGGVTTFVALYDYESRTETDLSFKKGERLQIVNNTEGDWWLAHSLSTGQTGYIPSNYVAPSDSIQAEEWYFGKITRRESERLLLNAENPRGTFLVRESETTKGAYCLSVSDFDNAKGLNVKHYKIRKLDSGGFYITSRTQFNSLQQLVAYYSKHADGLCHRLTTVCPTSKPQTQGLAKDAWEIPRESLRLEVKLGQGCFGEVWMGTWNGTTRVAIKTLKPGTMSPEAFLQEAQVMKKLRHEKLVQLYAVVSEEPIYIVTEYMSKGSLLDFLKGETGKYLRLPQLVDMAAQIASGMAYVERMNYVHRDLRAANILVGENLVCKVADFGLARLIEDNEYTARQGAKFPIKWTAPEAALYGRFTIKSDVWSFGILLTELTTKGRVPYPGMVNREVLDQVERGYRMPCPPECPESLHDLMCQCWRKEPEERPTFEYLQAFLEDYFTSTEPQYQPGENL
Sequence of kinase DYRK1B (Q9Y463 whole entry): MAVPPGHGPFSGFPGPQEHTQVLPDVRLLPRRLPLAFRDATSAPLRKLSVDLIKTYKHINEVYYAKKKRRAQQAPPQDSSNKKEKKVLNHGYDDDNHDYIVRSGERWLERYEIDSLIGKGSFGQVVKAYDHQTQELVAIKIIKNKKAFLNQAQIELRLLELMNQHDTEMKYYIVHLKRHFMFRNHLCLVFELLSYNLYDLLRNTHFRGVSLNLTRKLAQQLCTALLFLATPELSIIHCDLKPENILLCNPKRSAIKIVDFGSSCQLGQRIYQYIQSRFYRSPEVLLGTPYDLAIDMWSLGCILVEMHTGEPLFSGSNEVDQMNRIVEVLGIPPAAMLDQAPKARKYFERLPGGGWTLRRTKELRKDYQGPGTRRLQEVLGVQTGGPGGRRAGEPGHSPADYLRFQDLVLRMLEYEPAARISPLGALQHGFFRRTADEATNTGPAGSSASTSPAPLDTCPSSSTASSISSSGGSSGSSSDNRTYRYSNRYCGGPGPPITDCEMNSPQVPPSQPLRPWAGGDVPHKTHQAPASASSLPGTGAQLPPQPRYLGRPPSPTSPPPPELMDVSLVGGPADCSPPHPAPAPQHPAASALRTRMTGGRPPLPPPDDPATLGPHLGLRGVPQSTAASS
Sequence of kinase ABL (P00519 whole entry): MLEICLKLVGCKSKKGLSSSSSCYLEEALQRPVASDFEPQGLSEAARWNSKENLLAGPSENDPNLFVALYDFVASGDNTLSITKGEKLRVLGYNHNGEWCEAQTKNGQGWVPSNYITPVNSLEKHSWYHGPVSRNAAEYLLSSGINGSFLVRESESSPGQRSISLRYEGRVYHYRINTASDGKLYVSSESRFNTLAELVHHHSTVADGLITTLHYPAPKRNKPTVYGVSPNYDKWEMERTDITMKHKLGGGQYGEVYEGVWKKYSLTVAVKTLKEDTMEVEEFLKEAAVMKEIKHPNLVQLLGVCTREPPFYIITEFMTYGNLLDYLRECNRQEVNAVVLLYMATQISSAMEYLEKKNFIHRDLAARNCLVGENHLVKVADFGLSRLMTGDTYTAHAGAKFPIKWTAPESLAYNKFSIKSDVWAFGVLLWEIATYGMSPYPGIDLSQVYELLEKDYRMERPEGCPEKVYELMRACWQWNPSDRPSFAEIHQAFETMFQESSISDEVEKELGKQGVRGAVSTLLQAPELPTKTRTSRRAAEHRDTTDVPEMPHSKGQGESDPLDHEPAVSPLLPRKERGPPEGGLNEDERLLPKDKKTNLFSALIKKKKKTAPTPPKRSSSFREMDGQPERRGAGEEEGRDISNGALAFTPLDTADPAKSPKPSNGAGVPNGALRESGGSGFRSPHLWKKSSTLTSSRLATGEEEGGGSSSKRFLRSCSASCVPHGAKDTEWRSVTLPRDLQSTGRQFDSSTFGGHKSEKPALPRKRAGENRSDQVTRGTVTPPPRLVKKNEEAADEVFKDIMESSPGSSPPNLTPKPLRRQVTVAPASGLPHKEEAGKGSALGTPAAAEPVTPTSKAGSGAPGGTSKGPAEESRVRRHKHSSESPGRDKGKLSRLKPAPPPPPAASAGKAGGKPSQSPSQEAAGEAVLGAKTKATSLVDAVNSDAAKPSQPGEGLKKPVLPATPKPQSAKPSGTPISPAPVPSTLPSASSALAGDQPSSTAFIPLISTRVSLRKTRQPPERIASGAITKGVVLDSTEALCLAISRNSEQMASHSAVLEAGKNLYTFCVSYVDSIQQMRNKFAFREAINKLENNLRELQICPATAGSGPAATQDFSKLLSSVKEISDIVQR
Sequence of ABL in HEK293 cells (P00519 whole entry): as above

Structure (SMILES) | inhibitory activity on SRC compared with DYRK1A (kinase SRC) | inhibition of kinase SRC (kinase SRC) | inhibitory activity without heating/cooling (kinase DYRK1B) | inhibitory effect specific to the folding intermediate undergoing heating/cooling (kinase DYRK1B) | inhibitory effect on the complete protein that was not heated/cooled (Kinase DYRK1A) | inhibitory effect specific to the folding intermediate undergoing heating/cooling (Kinase DYRK1A) | other results
COc1ccc(/C=C2\SC(=S)NC2=O)cc1C#C[Si](C)(C)C [FINDY] | weaker than those on DYRK1A | inhibited the kinase SRC in a temperature jump-dependent manner |  |  |  |  | ABL band in western blotting (activity to decompose/remove ABL) (ABL in HEK293 cells): became fainter; inhibitory activity on ABL compared with DYRK1A (kinase ABL; temperature jump): stronger than that on DYRK1A; inhibition of kinase ABL (kinase ABL; with and without heating/cooling): strongly inhibited the kinase ABL in a temperature jump-dependent manner
COc1ccc2c(c1)[nH]c1c(C)nccc12 [Harmine] |  |  | exhibited an inhibitory effect | did not exhibit a specific inhibitory effect | exhibited an inhibitory effect | did not exhibit a specific inhibitory effect | 
CCOc1cc(/C=C2\SC(=S)NC2=O)ccc1O [RD0392] |  |  | exhibited an inhibitory effect | did not exhibit a specific inhibitory effect | exhibited an inhibitory effect | did not exhibit a specific inhibitory effect | 
COc1ccc(/C=C2\SC(=S)NC2=O)cc1C#C[Si](C)(c1ccccc1)c1ccccc1 [compound 168] | weaker than those on DYRK1A | inhibited the kinase SRC in a temperature jump-dependent manner |  |  |  |  | 
O=C(O[C@H]1Cc2ccccc2C[C@H]1OC(=O)c1cc(O)c(O)c(O)c1)c1cc(O)c(O)c(O)c1 [compound No. 2] |  |  |  |  |  | exhibited a specific inhibitory effect only with the folding intermediate | DYRK1A band in western blotting (activity to decompose/remove DYRK1A) (DYRK1A in HEK293 cells): became fainter; temperature jump-dependent inhibitory activity on MAO-A (monoamine oxidase MAO-A): temperature jump-dependent inhibitory activity was confirmed
